The values below come from patent US9309187B2, “EP2 receptor agonists” (TAKEDA GMBH, priority 2012, dated 2016).

Each structure is given as a SMILES string. Read-outs that look alike come from different tables or passages of the source.

As usually defined, the IC50 is the midpoint of a concentration-inhibition curve. In general, EC50 refers to the midpoint of the concentration-response curve. The IC30 is the concentration needed for an effect of 30%.

One test concerns the target T1, human EP2 receptor (Homo sapiens, UniProt P43116).
T1 construct: purchased Millipore
The test is described as follows: EP2 binding assay (PGE2 displacement). On the procedure:
Method for Measuring Inhibition of PGE2 Binding to the Human Prostanoid Receptor EP2:
Human EP2 receptor equilibrium competition binding assays were performed according to Abramovitz et al. (M. Abramovitz et al. 2000, Biochimica et Biophysica Acta 1483: 285-293) in a final incubation volume of 100 microL in 50 milliM Bis-Tris, pH6.0 in 96-well plates. Radiolabelled Prostaglandin E2 (PGE2) (1 nanoM [^3H]-PGE2 purchased from Perkin Elmer) was added to the assay as competitive ligand. Test compounds stored as Dimethylsulfoxide (DMSO) stock solutions were added to the assay in serial dilutions in assay buffer while keeping the final DMSO concentration equal in each sample. The reaction was initiated by addition of membrane proteins harbouring human EP2 receptor (ChemiSCREEN™ membrane preparation recombinant human EP2 prostanoid receptor that was purchased by Millipore). Total binding was determined in the absence of test compound or PGE2 and non-specific binding was determined in the presence of 1 microM PGE2. Incubations were conducted for 60 minutes at room temperature until equilibrium was reached and terminated by filtration through GF/B filter (Perkin Elmer) prewetted with 0.3% PEI solution. Unbound radiolabelled PGE2 was removed by 8 wash cycles with the same buffer under ice-cold conditions and the filters containing the residual radioactivity were dried for 60 minutes at 60° C. In order to measure the filter bound radioactivity, 40 microL microscint (scintillation liquid) was added to each filter and the chemiluminescence was determined by TopCount-NTX™. The specific binding was calculated by subtracting non-specific binding from each sample. Percent inhibition by test compounds was calculated based on specific binding without test compound. Each sample was measured in triplicates per experiment and for the calculation of the pIC50 at least 2 independent experiments were performed. Determination of half maximal inhibiting concentration (IC50) was performed with GraphPad Prism Software.
The numbers of the compounds correspond to the examples numbers.
EP2 Binding Assay (PGE2 Displacement): pIC50 Values

For test [1], the target named is T2, human prostanoid receptor EP2 (Homo sapiens, UniProt P43116).
T2 construct: expressed in transfected cells; host or cells: CHO-K1 (CHOp6CreLuc-huEP2)
Nature of the test: EP2 cAMP release assay in CHOp6CreLuc-huEP2 cells (CRE-luciferase readout). The class given is cell-based. On the procedure: Method for Measuring cAMP Release in Human EP2 Stably Transfectant Cells:
The potency and efficacy of EP2 agonists have been determined via measuring cAMP release in stably transfectant CHO-K1 cell expressing the human prostanoid receptor EP2 and luciferase enzyme regulated via a 6 times CRE (cAMP response element) containing transcriptional promoter. CHOp6CreLuc-huEP2 cells were seeded into 384-well plate (1000 cells per well) in DMEM/F12 (Dulbecco's Modified Eagle Medium/Nutrient Mixture F12) cell culture medium containing 2% FCS (Fetal Calf Serum) and 500 μg/ml G418 24 hours prior to the experiment. Test compound was added as serial dilutions while keeping the final DMSO concentration constant in each well. […] Cells were incubated together with test compound or butaprost for 4 hours at 37° C. The cAMP release was determined indirectly via luciferase activity that directly correlated to the amount of luciferase enzyme expressed in response to cAMP regulated promoter activity. The luciferase activity was determined by addition of luciferin containing buffer and subsequent quantification of resulting luminescence. Each sample was measured in quadruplicates per experiment and half-maximal effective concentration (EC50) and relative maximal effect compared to butaprost was determined from 3 independent experiments with GraphPad Prism Software. A compound that achieved over 80% of the maximal effect of butaprost was considered as full agonist.
For the following compounds the potency was determined in the cAMP release assay applying human EP2 transfectant CHOp6CreLuc-huEP2 cells. […] The numbers of the compounds correspond to the examples numbers.
EP2 cAMP Release Assay: pEC50

In test [2] the test system is TNFalpha release in human peripheral blood mononuclear cells (PBMC) stimulated with LPS. Nature of the test: Inhibition of LPS induced TNFalpha release in human PBMCs. The class given is cell-based. The conditions noted are these: 1 ng/mL LPS, 24 hours, reported as range bins, read-out: Inhibition of LPS induced TNFalpha release in human PBMCs pIC30 (-log IC30). On the procedure:
Method for Measuring the Inhibition of TNFalpha Release in Human Peripheral Blood MononuClear Cells (PBMC) Stimulated with LPS:
Assay was performed with some modifications of the method described by Hatzelmann and Schudt (Hatzelmann and Schudt 2001, J. Pharmacol. Exp. Therapeutics 297: 267-279) and the protocol “drawing of venous blood from healthy volunteers for in vitro studies” was approved by the ethics committee of the Landesärztekammer Baden Württemberg in Stuttgart. Peripheral blood mononuclear cells (PBMCs) were isolated from venous blood with the anticoagulant citrate from healthy donors according to standard protocols using Ficoll. The cell layer of PBMCs were washed twice with phosphate buffer solution and equilibrated at room temperature for 60 minutes. 500,000 PBMCs in 180 microL RPMI1640 cell medium supplemented with 10% FCS, NEAA (Non-essential-amino-acids), L-Glutamine and Sodium Pyruvate per sample were pre-incubated with 10 microL of a serial dilution of test compound or piclamilast as positive control for 60 min. at 37° C. After pre-incubation blood samples were stimulated by the addition of 10 microL LPS (Sigma, Aldrich) per sample resulting in a final concentration of 1 ng/mL LPS and a final volume of 200 microL. Cells were incubated for 24 hours at 37° C. TNFalpha levels were determined from cell supernatant that was obtained by a centrifugation step and transferring the supernatant to a new 96-well plate. Content of TNFalpha was determined via alphaLISA Technology according to manufacture protocol (Perkin Elmer).
PBMC samples that were not stimulated with LPS were used as control and set for 100% inhibition. PBMC samples that were stimulated with LPS and solvent instead of test compound were set as 0% inhibition. Percent inhibition was calculated based on these controls for each sample and since most compounds achieved saturating maximal inhibition of 60% a pIC30 value was calculated with GraphPad Prism Software.
For the following compounds the inhibitory values of TNFalpha release [determined as −log IC30=pIC30] in human PBMCs between 5.0 and 5.9, between 6.0 and 6.9, between 7.0 and 7.9 and between 8.0 and 9.0 have been determined. The numbers of the compounds correspond to the examples numbers.
Inhibition of LPS Induced TNFalpha Release Assay in Human PBMCs: pIC30

Test [3] concerns TNFalpha release in human whole blood stimulated with LPS. The test is described as follows: Inhibition of LPS induced TNFalpha release in human whole blood. The class given is cell-based. The conditions noted are these: 1 microg/mL LPS, 4 hours, reported as range bins, read-out: Inhibition of LPS induced TNFalpha release in human whole blood pIC30 (-log IC30). On the procedure: Method for Measuring the Inhibition of TNFalpha Release in Human Whole Blood Stimulated with LPS:
Assay was performed with some modifications of the method described by Hatzelmann and Schudt (Hatzelmann and Schudt (2001) JPET 297: 267-279) and the protocol “drawing of venous blood from healthy volunteers for in vitro studies” was approved by the ethics committee of the Landesärztekammer Baden Württemberg in Stuttgart.
Heparinised venous blood was equilibrated to assay conditions for 1 hour at room temperature upon blood drawing. Immediately thereafter, 200 microL whole blood per sample were pre-incubated with 25 microL of a serial dilution of test compound or piclamilast as positive control for 30 min. at 37° C. After pre-incubation blood samples were stimulated by the addition of 25 microL lipopolysaccharide (LPS) (Sigma, Aldrich) per sample resulting in a final concentration of 1 microg/mL LPS and a final volume of 250 microL. Cells were incubated for 4 hours at 37° C. TNFalpha levels were determined from plasma that was obtained by a centrifugation step and transferring the supernatant to a new 96-well plate which was again centrifuged and clear plasma supernatant was used for the measurement of TNFalpha via alphaLISA Technology according to manufacture protocol (Perkin Elmer).
Whole blood samples that were not stimulated with LPS were used as control and set for 100% inhibition. Whole blood samples that were stimulated with LPS and solvent instead of test compound were set as 0% inhibition. Percent inhibition was calculated based on these controls for each sample and since most compounds achieved saturating maximal inhibition of 60% a pIC30 value was calculated with GraphPad Prism Software.
For the following compounds the inhibitory values of TNFalpha release [determined as −log IC30=pIC30] in the human whole blood assay between 4.5 and 4.9, between 5.0 and 5.9 and between 6.0 and 6.9 have been determined. The numbers of the compounds correspond to the examples numbers.
Inhibition of LPS Induced TNFalpha Release Assay in Human Whole Blood: pIC30

Where [4] appears, read: recombinant human EP2 membranes, 1 nanoM [3H]-PGE2, reported as range bins, read-out: EP2 binding (PGE2 displacement) pIC50 (-log IC50) (converted).
[5] abbreviates: CHOp6CreLuc-huEP2 cells, 4 hours at 37° C., reported as range bins, read-out: EP2 cAMP release assay pEC50 (-log EC50) (converted).

T1 sequence (P43116 whole entry): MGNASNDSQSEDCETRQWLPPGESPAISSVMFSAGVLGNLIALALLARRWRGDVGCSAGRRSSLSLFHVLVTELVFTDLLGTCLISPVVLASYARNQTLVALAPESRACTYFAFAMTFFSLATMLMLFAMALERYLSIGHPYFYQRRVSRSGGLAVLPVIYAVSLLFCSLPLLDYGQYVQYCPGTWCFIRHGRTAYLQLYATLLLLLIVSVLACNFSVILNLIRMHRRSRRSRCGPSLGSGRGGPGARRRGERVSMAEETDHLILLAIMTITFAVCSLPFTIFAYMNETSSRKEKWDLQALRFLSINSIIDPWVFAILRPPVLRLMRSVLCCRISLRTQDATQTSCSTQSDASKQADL
T2 sequence (P43116 whole entry): as above

Regarding `O=C(O)CCc1cccc(NC(=O)c2cc(-c3ccccc3)cc3ccccc23)c1` [Example 7, 3-(3-{[(3-phenylnaphthalen-1-yl)carbonyl]amino}phenyl) propanoic acid], the IC50 at human EP2 receptor (setting [4]) was 12.6 to 100 nM. Also, the EC50 in test [1] (setting [5]) is 0.126 to 1 nM. Moreover, in test [2], the IC30 fell in the range of 126 to 1000 nM.
As to `O=C(O)/C=C/c1ccc(F)c(NC(=O)c2cc(N3CCCCC3)cc3ccccc23)c1` [Example 22, (2E)-3-[4-fluoro-3-({[3-(piperidin-1-yl)naphthalen-1-yl]carbonyl}amino)phenyl]prop-2-enoic acid], on human EP2 receptor (setting [4]), the IC50 is 12.6 to 100 nM. Besides, the EC50 in test [1] (setting [5]) is 0.126 to 1 nM. Besides, the IC30 in test [3] was 1260 to 10000 nM; in test [2], 12.6 to 100 nM.
Consider `O=C(O)CCc1ccc(F)c(NC(=O)c2cc(-c3cccc(F)c3)cc3ccccc23)c1` [Example 17, 3-[4-fluoro-3-({[3-(3-fluorophenyl)naphthalen-1-yl]carbonyl}amino)phenyl]propanoic acid], for which the IC50 at human EP2 receptor (setting [4]) is 1.26 to 10 nM. In addition, the EC50 in test [1] (setting [5]) is 0.126 to 1 nM. For the same compound, the IC30 in test [2] was in the range of 126 to 1000 nM.
As for `CN(C)C(=O)Oc1cccc(-c2cc(C(=O)Nc3cccc(/C=C/C(=O)O)c3)c3ccccc3c2)c1` [Example 23, (2E)-3-(3-{[(3-{3-[(dimethylcarbamoyl)oxy]phenyl}naphthalen-1-yl)carbonyl]amino}phenyl)prop-2-enoic acid], the IC50 on human EP2 receptor was 126 to 2000 nM. For the same compound, the EC50 in test [1] fell in the range of 1.26 to 12.6 nM. Moreover, in test [2], the IC30 fell in the range of 126 to 1000 nM.
`O=C(O)CCc1ccc(F)c(NC(=O)c2cc(-c3ccccc3)cc3ccccc23)c1` [Example 8, 3-(4-fluoro-3-{[(3-phenylnaphthalen-1-yl)carbonyl]amino}phenyl) propanoic acid]: the IC50 on human EP2 receptor (setting [4]) is 12.6 to 100 nM. Besides, the EC50 in test [1] (setting [5]) was 0.126 to 1 nM. In addition, in test [2], the IC30 was in the range of 126 to 1000 nM.
`O=C(O)COc1ccc(F)c(NC(=O)c2cc(-c3ccccc3)cc3ccccc23)c1` [Example 5, (4-fluoro-3-{[(3-phenylnaphthalen-1-yl)carbonyl]amino}phenoxy)acetic acid]: the IC50 on human EP2 receptor (setting [4]) was 1.26 to 10 nM. Besides, the EC50 in test [1] (setting [5]) is 0.00631 to 0.1 nM.
Consider `O=C(O)/C=C/c1ccc(F)c(NC(=O)c2cc(-c3cccc(CO)c3)cc3ccccc23)c1` [Example 14, (2E)-3-{4-fluoro-3-[({3-[3-(hydroxymethyl)phenyl]naphthalen-1-yl}carbonyl)amino]phenyl}prop-2-enoic acid], for which the IC50 on human EP2 receptor (setting [4]) is 1.26 to 10 nM. In addition, the EC50 in test [1] (setting [5]) is 0.126 to 1 nM. Besides, the IC30 in test [2] is 126 to 1000 nM.
For the compound `CC(=O)NCc1cccc(-c2cc(C(=O)Nc3cc(/C=C/C(=O)O)ccc3F)c3ccccc3c2)c1` [Example 18], the EC50 in test [1] (setting [5]) is 1.26 to 12.6 nM. In addition, the IC30 in test [2] lay within 1260 to 10000 nM.
Take `O=C(O)CCc1ccc(F)c(NC(=O)c2cc(-c3ccccc3F)cc3ccccc23)c1` [Example 16, 3-[4-fluoro-3-({[3-(2-fluorophenyl)naphthalen-1yl]carbonyl}amino)phenyl]-propanoicacid]: on human EP2 receptor (setting [4]), the IC50 is 12.6 to 100 nM. The EC50 in test [1] (setting [5]) was 1.26 to 12.6 nM. The IC30 in test [2] was in the range of 126 to 1000 nM.
In the case of `O=C(O)/C=C/c1cccc(NC(=O)c2cc(-c3cccc(N4CCNCC4)c3)cc3ccccc23)c1` [Example 20, (2E)-3-{3[({3-[3-(piperazin-1-yl)phenyl]naphthalen-1-yl}carbonyl)amino]phenyl}prop-2-enoic acid], the IC50 at human EP2 receptor (setting [4]) is 126 to 2000 nM. In test [1] (setting [5]), the EC50 was 1.26 to 12.6 nM.
In the case of `O=C(O)/C=C/c1cccc(NC(=O)c2cc(N3CCOCC3)cc3ccccc23)c1` [Example 21, (2E)-3-[3-({[3-(morpholin-4-yl)naphthalen-1-yl]carbonyl}amino)phenyl]prop-2-enoic acid], the IC50 at human EP2 receptor (setting [4]) is 126 to 2000 nM. In addition, the EC50 in test [1] (setting [5]) was 1.26 to 12.6 nM. Besides, the IC30 in test [2] lay within 126 to 1000 nM.
Take `O=C(O)/C=C/c1ccc(F)c(NC(=O)c2cc(-c3ccc(F)cc3)cc3ccccc23)c1` [Example 11, (2E)-3-{3-[({3-[4-fluorophenyl]naphthalen-1-yl}carbonyl)amino]-4fluorophenyl}prop-2-enoic acid]: the IC50 at human EP2 receptor (setting [4]) was 1.26 to 10 nM. In addition, the EC50 in test [1] (setting [5]) was 0.126 to 1 nM.
In the case of `CCCC1([C@H](O)C/C=C/[C@H]2[C@H](O)CC(=O)[C@@H]2CCCCCCC(=O)OC)CCC1` [butaprost, reference compound], in test [1] (CHOp6CreLuc-huEP2 cells), the “maximal effect of positive control relative to PGE2” value is listed as “same maximal effect compared to the maximal effect of PGE2”.
Regarding `O=C(O)COc1ccc(Cl)c(NC(=O)c2cc(-c3ccccc3)cc3ccccc23)c1` [Example 6], the IC50 at human EP2 receptor (setting [4]) was 12.6 to 100 nM. Besides, in test [1] (setting [5]), the concentration for a half-maximal effect (EC50) is 0.00631 to 0.1 nM.
